Patent publication US20210213104A1, “GLUCAGON AND GLP-1 CO-AGONISTS FOR THE TREATMENT OF CHRONIC KIDNEY DISEASE AND DIABETIC KIDNEY DISEASE IN TYPE 2 DIABETES” (MEDIMMUNE LIMITED, priority 2020, published 2021)
“And” between values parts separate entries of the source, which are not always exact repeats. Equal entries are not always repeated.

Tested on: subjects with T2DM and renal impairment
Test: Phase 2a: mixed-meal tolerance test (MMTT) plasma glucose AUC
Assay type: in vivo, human
Conditions: for MMTT plasma glucose AUC4 h, LS Mean % Change / MMTT plasma glucose AUC4 h, Difference in LS Mean % Change (vs Placebo) / Percent Change from Baseline in MMTT plasma glucose AUC4 h, Mean / Percent Change from Baseline in MMTT plasma glucose AUC4 h, Median: Day −5 to Day 32; for MMTT plasma glucose AUC4 h, LS Mean % Change: ANCOVA; for MMTT plasma glucose AUC4 h, LS Mean % Change / MMTT plasma glucose AUC4 h, Difference in LS Mean % Change (vs Placebo) / Percent Change from Baseline in MMTT plasma glucose AUC4 h, Mean / Percent Change from Baseline in MMTT plasma glucose AUC4 h, Median / MMTT plasma glucose AUC4 h, Day 32, Mean / MMTT plasma glucose AUC4 h, Day 32, Median: ITT
Procedure: Cotadutide was titrated from 50 μg up to 300 μg and administered once daily by subcutaneous (SC) injection over 32 days.
Cotadutide was administered at 50 μg once daily for 4 days, followed by 100 μg daily for 7 days, 200 μg daily for 7 days, and 300 μg daily for 14 days (n=20). Placebo was administered one daily for 32 days (n=20). Cotadutide and placebo were administered in the morning. Dosing commenced following predose baseline vital signs, blood tests (including HbA1c), an electrocardiogram (ECG), body weight measurement, and bioimpedance spectroscopy (BIS). Subjects then returned for daily dosing or remained overnight locally until Day 5, and thereafter, had visits at weekly intervals until a maintenance dose of 300 μg was established. Thus, Cotadutide or placebo was administered at the study site by study personal for the first four doses and on site on Days 5, 12, 19, and 32. At all other times, subjects preformed dosing at home.
The effect of Cotadutide titrated up to a dose level of 300 μg on glucose control vs placebo after 32 days of treatment was assessed by a standardized mixed-meal tolerance test (MMTT) to determine the percentage change in glucose from area under the concentration-time curve (AUC) from baseline (Day −5) to the end of 32 days of treatment.
Following a minimum 8-hour fast, the subject underwent an MMTT, which involved the consumption of a standardized liquid meal (Ensure Plus, a nutritional supplement containing the components of fat, carbohydrate, and protein, which make up a standard MMTT) within 15 minutes, and timed serial blood samples were obtained for measurement of glucose through 240 minutes after consumption of the standardized meal (with no additional food intake during this time). Blood was drawn within 15 minutes before consuming the standardized liquid meal (i.e., “0 minutes”), and at 15, 30, 45, 60, 90, 120, 180, and 240 minutes (±5 minutes) after consumption. Blood sampling occurred as close as possible to the specified times for the MMTT. At Day 32, the serial blood sampling begins 2.5 hours after Cotadutide or placebo administration.
Subjects who used a quick acting or pre-mixed form of insulin with breakfast received their usual/current dose of breakfast-time insulin with the Ensure Plus milkshake i.e., dose reduction of insulin was not required. Subjects who carbohydrate counted or varied insulin dose in relation to meal type were advised that the Ensure Plus milkshake contained approximately 44.4 g of carbohydrate, 10.8 g of fat, and 13.8 g of protein and to adjust their insulin dose on this basis. The timing of insulin administration in relation to the Ensure Plus milkshake consumption was in accordance with the usual regimen used by the subject, e.g., if a subject injected insulin 30 minutes before breakfast, they were to inject insulin 30 minutes before the Ensure Plus milkshake.
The investigators also considered whether a dose reduction in insulin and/or sulfonylurea or glitinide was required for this fasting assessment on Day 32.
The change in the mixed-meal tolerance test (MMTT) plasma glucose AUC from the baseline (Day −5) to end of 32 days of treatment was evaluated in the ITT population using an analysis of covariance (ANCOVA) model. The model included fixed effect of treatment and baseline AUC as a covariate. The difference of the percent change in glucose AUC between the two treatment arms was compared with a two-sided significance level of 0.10.

Q: Which “MMTT plasma glucose AUC4 h, LS Mean % Change” value (Insulin Dose < 20 U/day) does the source give for `CCCCCCCCCCCCCCCC(=O)N[C@@H](CCC(=O)NCCCC[C@H](NC(=O)[C@H](CC(=O)O)NC(=O)[C@H](CO)NC(=O)[C@@H](NC(=O)[C@H](Cc1ccccc1)NC(=O)[C@@H](NC(=O)CNC(=O)[C@H](CCC(N)=O)NC(=O)[C@H](CO)NC(=O)[C@@H](N)Cc1c[nH]cn1)[C@@H](C)O)[C@@H](C)O)C(=O)N[C@@H](CO)C(=O)N[C@@H](CCC(=O)O)C(=O)N[C@@H](Cc1ccc(O)cc1)C(=O)N[C@@H](CC(C)C)C(=O)N[C@@H](CC(=O)O)C(=O)N[C@@H](CO)C(=O)N[C@@H](CCC(=O)O)C(=O)N[C@@H](CCCNC(=N)N)C(=O)N[C@@H](C)C(=O)N[C@@H](CCCNC(=N)N)C(=O)N[C@@H](CC(=O)O)C(=O)N[C@@H](Cc1ccccc1)C(=O)N[C@H](C(=O)N[C@@H](C)C(=O)N[C@@H](Cc1c[nH]c2ccccc12)C(=O)N[C@@H](CC(C)C)C(=O)N[C@@H](CCC(=O)O)C(=O)N[C@@H](C)C(=O)NCC(=O)NCC(=O)O)C(C)C)C(=O)O` [Cotadutide] here?
A: −27.16%

Q: What about the “MMTT plasma glucose AUC4 h, LS Mean % Change” value (Insulin Dose ≥ 20 U/day) of the same compound?
A: −25.313%

Q: What about the “MMTT plasma glucose AUC4 h, LS Mean % Change” value (Total) of the same compound?
A: −26.71% and −26.7%

Q: What about the “MMTT plasma glucose AUC4 h, LS Mean % Change” value (Total, listed as MEDI0382) of the same compound?
A: −26.71%

Q: And the “MMTT plasma glucose AUC4 h, LS Mean % Change” value (eGFR 30-44 mL/min/1.73 m^2)?
A: −27.59%

Q: And the “MMTT plasma glucose AUC4 h, LS Mean % Change” value (eGFR 45-59 mL/min/1.73 m^2)?
A: −27.95%

Q: What about the “MMTT plasma glucose AUC4 h, Difference in LS Mean % Change (vs Placebo)” value (Insulin Dose < 20 U/day) of the same compound?
A: −36.37%

Q: And the “Percent Change from Baseline in MMTT plasma glucose AUC4 h, Mean” value (shortened to “Percent Change from Baseline … Mean”) (Insulin Dose < 20 U/day)?
A: −31.99%

Q: What about the “Percent Change from Baseline in MMTT plasma glucose AUC4 h, Median” value (shortened to “Percent Change from Baseline … Median”) (Insulin Dose < 20 U/day) of the same compound?
A: −36.99%

Q: And the “MMTT plasma glucose AUC4 h, Difference in LS Mean % Change (vs Placebo)” value (Insulin Dose ≥ 20 U/day)?
A: −25.751%

Q: What about the “Percent Change from Baseline … Mean” value (Insulin Dose ≥ 20 U/day) of the same compound?
A: −25.00%

Q: What about the “Percent Change from Baseline … Median” value (Insulin Dose ≥ 20 U/day) of the same compound?
A: −22.850%

Q: And the “MMTT plasma glucose AUC4 h, Difference in LS Mean % Change (vs Placebo)” value (Total)?
A: −30.38%

Q: What about the “Percent Change from Baseline … Mean” value (Total) of the same compound?
A: −27.719%

Q: And the “Percent Change from Baseline … Median” value (Total)?
A: −27.45%

Q: And the “MMTT plasma glucose AUC4 h, Difference in LS Mean % Change (vs Placebo)” value (eGFR 30-44 mL/min/1.73 m^2)?
A: −31.64%

Q: What about the “Percent Change from Baseline … Mean” value (eGFR 30-44 mL/min/1.73 m^2) of the same compound?
A: −24.41%

Q: And the “Percent Change from Baseline … Median” value (eGFR 30-44 mL/min/1.73 m^2)?
A: −22.90%

Q: And the “MMTT plasma glucose AUC4 h, Difference in LS Mean % Change (vs Placebo)” value (eGFR 45-59 mL/min/1.73 m^2)?
A: −32.87%

Q: What about the “Percent Change from Baseline … Mean” value (eGFR 45-59 mL/min/1.73 m^2) of the same compound?
A: −29.83%

Q: What about the “Percent Change from Baseline … Median” value (eGFR 45-59 mL/min/1.73 m^2) of the same compound?
A: −37.00%

Q: What about the “MMTT plasma glucose AUC4 h, Day 32, Mean” value (Insulin Dose < 20 U/day) of the same compound?
A: 594.85 mg·h/dL

Q: What about the “MMTT plasma glucose AUC4 h, Day 32, Median” value (Insulin Dose < 20 U/day) of the same compound?
A: 599.41 mg·h/dL

Q: What about the “MMTT plasma glucose AUC4 h, Day 32, Mean” value (Insulin Dose ≥ 20 U/day) of the same compound?
A: 679.23 mg·h/dL

Q: What about the “MMTT plasma glucose AUC4 h, Day 32, Median” value (Insulin Dose ≥ 20 U/day) of the same compound?
A: 700.08 mg·h/dL

Q: And the “MMTT plasma glucose AUC4 h, Day 32, Mean” value (Total)?
A: 646.42 mg·h/dL

Q: And the “MMTT plasma glucose AUC4 h, Day 32, Median” value (Total)?
A: 619.33 mg·h/dL

Q: What about the “MMTT plasma glucose AUC4 h, Day 32, Mean” value (eGFR 30-44 mL/min/1.73 m^2) of the same compound?
A: 618.21 mg·h/dL

Q: And the “MMTT plasma glucose AUC4 h, Day 32, Median” value (eGFR 30-44 mL/min/1.73 m^2)?
A: 700.10 mg·h/dL

Q: And the “MMTT plasma glucose AUC4 h, Day 32, Mean” value (eGFR 45-59 mL/min/1.73 m^2)?
A: 664.37 mg·h/dL

Q: What about the “MMTT plasma glucose AUC4 h, Day 32, Median” value (eGFR 45-59 mL/min/1.73 m^2) of the same compound?
A: 605.70 mg·h/dL

Q: What about the “postprandial plasma glucose concentrations on Day 32” value (pre-standardized liquid meal to 180 minutes post meal) of the same compound?
A: lower than placebo
